# Where two headings read alike, the source gives them in different places.
# Key:
# [1] = molecular target: blood-brain barrier choline transporter; format: in vivo, rat
# Description: Blood-brain barrier choline transporter affinity assays. Quaternary ammonium analogs were evaluated for their ability to inhibit [^3H]-choline uptake into brain providing an indication of the ability of these analogs to interact with the choline transporter. These assays were conducted using the in situ rat brain perfusion method of Takasato, et al., Am. J. Physiol. 1984, 247, 484, as modified by Allen and Smith, J. Neurochem., 2001, 76, 1032. […] Ki values were compared by ANOVA followed by Bonferoni's multiple comparisons test to determine if an analog inhibits [^3H]-choline uptake.
# Analog affinity for, and transport by, the blood-brain barrier choline transporter.
# [2] = system: nAChR subtypes mediating nicotine-evoked DA release; test: Analog-evoked [^3H]DA overflow (intrinsic activity) from superfused striatal slices; format: cell-based, rat
# [3] = system: nAChR subtypes mediating nicotine-evoked [^3H]-dopamine overflow
# Description: [^3H]-Dopamine overflow from superfused striatal slices. […] Striatal coronal slices (500 μm, 4-6 mg) were obtained and incubated for 30 minutes in Krebs' buffer (in mM: 118 NaCl, 4.7 KCl, 1.2 MgCl2, 1 NaH2PO4, 1.3 CaCl2, 11.1 glucose, 25 NaHCO3, 0.11 L-ascorbic acid and 0.004 disodium EDTA, pH 7.4, saturated with 95% O2/5% CO2) in a metabolic shaker at 34° C. Slices were incubated with 0.1 μM (final concentration) of [^3H]-dopamine during the latter 30 minutes of the 60-minute incubation period. Each slice was transferred to a glass superfusion chamber maintained at 34° C. and superfused (1 ml/min) with Krebs' buffer containing nomifensine (10 μM) and pargyline (10 μM) to inhibit [^3H]-dopamine reuptake after release into the extracellular space, ensuring that [^3H]-overflow primarily represented [^3H]-dopamine. Sample collection (5-minute; 5 mL) began after 60 minutes of superfusion. […] At the end of the experiment, each slice was solubilized, and the [^3H]-content of the tissue determined. Release during each minute was normalized for total tissue [^3H]-content. Analog-induced intrinsic activity and inhibitory activity were determined using slices from the same rat (repeated-measures design).
# The amount of [^3H] in each sample was calculated by dividing the total [^3H] collected in each sample by the total in the tissue at the time of sample collection (defined as fractional release). […] Data were analyzed by weighted, least squares regression analysis of the sigmoidal concentration-effect curves to obtain EC50 and IC50 values.
# Striatal slices (500 μm, 4-6 mg) were incubated for 30 minutes in Krebs' buffer (in mM: 118 NaCl, 4.7 KCl, 1.2 MgCl2, 1 NaH2PO4, 1.3 CaCl2, 11.1 glucose, 25 NaHCO3, 0.11 L-ascorbic acid and 0.004 disodium EDTA, pH 7.4, saturated with 95% O2/5% CO2) in a metabolic shaker at 34° C. Slices were incubated with 0.1 μM (final concentration) [^3H]DA during the latter 30 minutes of the 60-minute incubation period. Each slice was transferred to a glass superfusion chamber maintained at 34° C. and superfused (1 ml/min) with Krebs' buffer containing nomifensine (10 μM) and pargyline (10 μM) to inhibit [^3H]DA reuptake and metabolism, respectively, after release into the extracellular space, ensuring that [^3H]overflow primarily represents [^3H]DA. Sample collection (5-minute; 5 ml) began after 60 minutes of superfusion. […] Thus, the ability of these analogs to elicit intrinsic activity (evoke [^3H]DA overflow) was determined. At the end of the experiment, each slice was solubilized and [^3H]content of the tissue determined. Release during each minute was normalized for total [^3H]content of the slice. Analog-induced intrinsic activity and inhibitory activity were determined using slices from the same rat (repeated-measures design).
# Fractional release was calculated by dividing the total tritium collected in each sample by the total tritium in the tissue at the time of sample collection. […] Typically, data were analyzed by weighted, least squares regression analysis of sigmoidal concentration-effect curves to obtain EC50 and IC50 values.
# [4] = system: nAChR mediating nicotine-evoked [^3H]DA release (α3β2* receptor subtype); format: cell-based, rat; conditions: read-out: IC50, S-(−)-nicotine-evoked [^3H]DA release
# Description: Slices were rinsed with 15 mL of fresh buffer and incubated for an additional 30 minutes in fresh buffer containing 0.1 μM [^3H]DA (6 slices/3 ml). Subsequently, slices were rinsed with 15 ml of fresh buffer and transferred to a glass superfusion chamber.
# Radioactivity in the superfusate and tissue samples was determined by liquid scintillation spectroscopy. […] Basal [^3H]outflow was calculated from the average of the tritium collected in the two five minute samples just before addition of the bis-alkyl pyridino analog. […] [^3H]Overflow was calculated by subtracting the [^3H]outflow during an equivalent period of prestimulation from the values in samples collected during and after drug exposure. Inasmuch as the radiolabelled compounds were not separated and identified, the tritium collected in superfusate is referred to as either [^3H]outflow or [^3H]overflow, rather than as [^3H]DA.
# α7* nAChRs [5] = molecular target: T1, α7* nAChRs (Rattus norvegicus, UniProt Q05941); test: biochemical
# T1 sequence (Q05941 23-502): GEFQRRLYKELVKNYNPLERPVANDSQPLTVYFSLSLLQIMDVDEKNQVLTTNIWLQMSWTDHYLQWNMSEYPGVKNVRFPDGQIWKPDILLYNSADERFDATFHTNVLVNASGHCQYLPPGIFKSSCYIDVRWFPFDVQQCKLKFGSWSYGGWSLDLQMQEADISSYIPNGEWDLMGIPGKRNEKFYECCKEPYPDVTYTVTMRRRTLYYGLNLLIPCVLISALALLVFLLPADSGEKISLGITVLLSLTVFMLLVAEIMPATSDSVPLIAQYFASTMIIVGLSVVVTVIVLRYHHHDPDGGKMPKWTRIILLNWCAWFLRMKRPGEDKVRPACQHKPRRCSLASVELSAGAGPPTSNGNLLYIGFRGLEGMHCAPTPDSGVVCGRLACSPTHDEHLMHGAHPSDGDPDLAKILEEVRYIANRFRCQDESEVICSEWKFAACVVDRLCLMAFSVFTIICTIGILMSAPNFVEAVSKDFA
# Description: (§1) Whole brain, excluding cortex and cerebellum, was homogenized in 20 ml of ice-cold buffer, containing (in mM): 2 HEPES, 11.8 NaCl, 0.48 KCl, 0.25 CaCl2 and 0.12 MgSO4, pH 7.5. Homogenate was centrifuged (25,000 g, 15 minutes, 4° C.). Pellets were resuspended in 20 ml of buffer and incubated at 37° C., for ten minutes, cooled to 4° C. and centrifuged (25,000 g, 15 minutes, 4° C.). Pellets were resuspended and centrifuged using the same conditions. Final pellets were stored in assay buffer, containing (in mM): 20 HEPES, 118 NaCl, 4.8 KCl, 2.5 CaCl2, and 1.2 MgSO4) pH 7.5 at −70° C. Upon use, final pellets were resuspended in ˜20 ml assay buffer. […] Control was in the absence of analog. […] Incubations proceeded for 60 minutes at room temperature using 96-well plates and were terminated by harvesting on Unifilter-96 GF/B filter plates presoaked in 0.5% polyethylenimine, using a Packard FilterMate harvester.
# (§2) After washing five times with 350 μl ice-cold assay buffer, filter plates were dried (60 minutes, 49° C.), bottom-sealed, and filled with Packard's MicroScint 20 cocktail (40 μl/well). After 60 minutes, filter plates were top-sealed, and radioactivity determined using a Packard TopCount. Protein concentrations were determined using bovine serum albumin as the standard.
# (§3) Whole brain was homogenized in 20 ml of ice-cold buffer (in mM: 2 HEPES, 11.8 NaCl, 0.48 KCl, 0.25 CaCl2, and 0.12 MgSO4, pH 7.5). Homogenates were centrifuged (25,000 g, 15 minutes, 4° C.). Pellets were resuspended in 20 ml of buffer and incubated at 37° C., for 10 minutes, cooled to 4° C. and centrifuged (25,000 g, 15 minutes, 4° C.). Pellets were resuspended and centrifuged again using the same conditions. Final pellets were stored at −70° C. in assay buffer (in mM: 20 HEPES, 118 NaCl, 4.8 KCl, 2.5 CaCl2, and 1.2 MgSO4, pH 7.5). Upon use, final pellets were resuspended in ˜20 ml assay buffer. […] Control was in the absence of analog. […] Incubation proceeded for 60 minutes at room temperature using 96-well plates and was terminated by harvesting on Unifilter-96 GF/B filter plates, presoaked in 0.5% polyethylenimine, using a Packard FiterMate harvester. After washing 5× with 350 μl ice-cold assay buffer, filter plates were dried (60 minutes, 49° C.), bottom-sealed, and filled with Packard's MicroScint 20 cocktail (40 μl/well). After 60 minutes, filter plates were top-sealed, and radioactivity determined. Protein concentration was determined using BSA as the standard.
# [6] = molecular target: T2, Rat Striatal Nicotinic Acetylcholine Receptors ([^3H]nicotine binding sites) (Rattus norvegicus, UniProt P09483+P12390); test: biochemical; conditions: read-out: Ki, specific binding of [^3H]-nicotine
# T2 construct: Striata from two rats were dissected, pooled, and homogenized; from tissue; host or cells: rat striatum membranes
# T2 sequence (P09483 31-630): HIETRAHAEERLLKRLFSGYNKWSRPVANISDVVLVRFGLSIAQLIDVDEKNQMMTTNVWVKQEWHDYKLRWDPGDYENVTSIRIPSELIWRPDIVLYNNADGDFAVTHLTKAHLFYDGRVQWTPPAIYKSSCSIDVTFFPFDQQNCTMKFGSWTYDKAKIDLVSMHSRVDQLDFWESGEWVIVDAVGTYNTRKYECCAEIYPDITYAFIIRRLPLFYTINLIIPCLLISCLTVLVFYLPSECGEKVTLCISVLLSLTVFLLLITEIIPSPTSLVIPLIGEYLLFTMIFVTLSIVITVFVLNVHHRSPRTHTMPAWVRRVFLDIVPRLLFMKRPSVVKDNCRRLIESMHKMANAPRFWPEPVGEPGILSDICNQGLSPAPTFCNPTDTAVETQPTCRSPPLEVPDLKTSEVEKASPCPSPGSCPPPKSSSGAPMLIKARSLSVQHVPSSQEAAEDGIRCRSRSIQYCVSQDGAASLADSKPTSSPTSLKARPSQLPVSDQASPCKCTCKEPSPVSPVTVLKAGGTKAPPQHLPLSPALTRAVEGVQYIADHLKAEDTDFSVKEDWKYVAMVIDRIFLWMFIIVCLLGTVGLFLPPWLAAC
# T2 sequence (P12390 25-500): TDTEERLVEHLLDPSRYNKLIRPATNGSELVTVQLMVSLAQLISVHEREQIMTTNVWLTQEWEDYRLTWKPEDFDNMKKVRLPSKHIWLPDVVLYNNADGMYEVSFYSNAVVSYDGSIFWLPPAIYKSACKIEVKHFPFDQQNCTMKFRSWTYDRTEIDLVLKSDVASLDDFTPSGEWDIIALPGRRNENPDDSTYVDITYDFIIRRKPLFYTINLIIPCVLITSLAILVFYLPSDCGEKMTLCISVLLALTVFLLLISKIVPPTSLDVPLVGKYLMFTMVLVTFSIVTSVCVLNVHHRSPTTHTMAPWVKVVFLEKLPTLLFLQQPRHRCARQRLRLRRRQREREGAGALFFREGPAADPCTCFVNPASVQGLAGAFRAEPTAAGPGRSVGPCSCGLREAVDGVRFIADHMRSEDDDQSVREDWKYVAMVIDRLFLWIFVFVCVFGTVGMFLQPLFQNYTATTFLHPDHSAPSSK
# Description: Striata from two rats were dissected, pooled, and homogenized with a Tekmar polytron in 10 volumes of ice-cold modified Krebs-HEPES buffer (20 mM HEPES, 118 mM NaCl, 4.8 mM KCl, 2.5 mM CaCl2, 1.2 mM MgSO4, adjusted to pH 7.5). The homogenates were incubated at 37° C. for five minutes and centrifuged at 15,000 g for 20 minutes. The pellet was resuspended in ten volumes of ice-cold MilliQ water, incubated for five minutes at 37° C., and centrifuged at 15,000 g for 20 minutes The second pellet was then resuspended in ten volumes of fresh ice-cold 10% Krebs-HEPES buffer, incubated at 37° C., and centrifuged at 15,000 g for 20 minutes. The latter sequence of resuspension, incubation, and centrifugation was repeated. The pellet was frozen under fresh 10% Krebs-HEPES buffer and stored at −40° C. until assay. Upon assay, the pellet was resuspended in the Krebs-HEPES buffer, incubated at 37° C. for five minutes, and centrifuged at 15,000 g for 20 minutes. The final pellet was resuspended in 3.6 ml ice-cold MilliQ water which provided for approximately 200 μg protein per 100 μl aliquot. Competition assays were performed in duplicate in a final volume of 200 μl Krebs-HEPES buffer containing […] Tris buffer (pH 7.5 at 4° C.). […] After a 90 minute incubation at 4° C., reactions were terminated by dilution of the samples with 3 ml of ice-cold Krebs-HEPES buffer followed immediately by filtration through Whatman GF/B glass fiber filters (presoaked in 0.5% polyethyleneimine) using a Brandel Cell Harvester. Filters were rinsed three times with 3 ml of ice-cold Krebs-HEPES buffer, transferred to scintillation vials, and 5 ml scintillation cocktail (Research Products International Corp., Mt. Prospect, Ill.) added. […] Binding parameters were determined using the weighted, least squares non-linear regression.
# α4β2* nAChRs = α4β2* nAChRs (Rattus norvegicus, UniProt P09483+P12390); conditions: for mode of interaction with the high affinity [^3H]-nicotine binding site (Scatchard analyses): no change in Bmax
# α4β2* nAChRs, sequence (P09483 31-630): as the sequence (P09483 31-630) above
# α4β2* nAChRs, sequence (P12390 25-500): as the sequence (P12390 25-500) above
# Description: as §1, §2, §3
# [7] = molecular target: T3, α7-type neuronal nicotinic acetylcholine receptors (Rattus norvegicus, UniProt Q05941); test: biochemical; conditions: rat brain membranes, 2.5 nM [^3H]-MLA; read-out: Ki, [^3H]MLA binding
# T3 construct: Rat brain was dissected into the whole brain tissue without cortex, striatum and cerebellum; from tissue; host or cells: rat brain (without cortex, striatum, cerebellum) membranes
# T3 sequence (Q05941 23-502): as the sequence (Q05941 23-502) above
# [8] = molecular target: T3, α7-type neuronal nicotinic acetylcholine receptors; format: binding; conditions: for Ki: read-out: Ki, [^3H]MLA binding
# Description: Rat brain was dissected into the whole brain tissue without cortex, striatum and cerebellum and was frozen in liquid nitrogen and stored at −70° C. until use.
# The brain tissue was homogenized with a Tekmar Polytron (setting 40) in 20 volumes of ice-cold hypotonic buffer (2 mM HEPES, 14.4 mM NaCl, 0.15 mM KCl, 0.2 mM CaCl2 and 0.1 mM MgSO4, pH=7.5). The homogenate was incubated at 37° C. for ten minutes and centrifuged at 25,000×g for 15 minutes at […] The pellet was washed three times more by resuspension in the 20 volumes of the same buffer and centrifugation at the above parameters. The final pellet was stored at −20° C. under 4.6 ml of the incubation buffer and was suspended just before the incubation with radioligand.
# [^3H]MLA (25.4 Ci/mmol) was purchased from Tocris Cookson Ltd., Bristol, U.K. Binding was performed in duplicate, in a final volume of 250 μl of the incubation medium, containing 20 mM HEPES, 144 mM NaCl, 1.5 mM KCl, 2 mM CaCl2, 1 mM MgSO4 and 0.05% BSA, pH=7.5. Reaction was initiated by the addition of 100 μl of membrane suspension to the samples containing a desired concentration of test compounds and […] [^3H] MLA (final concentration) and incubated for 2 hours at room temperature. […] The binding reaction was terminated by dilution of samples with 3 ml of ice-cold incubation buffer followed by immediate filtration through presoaked in 0.5% polyethylenimine glass fiber filters (S&S, grade #32) using a Brandel harvester system. Filters were rinsed three times with 3 ml of ice-cold buffer, transferred to scintillation-vials and 4 ml of scintillation cocktail was added. Protein was measured using the Bradford dye-binding procedure with bovine serum albumin as the standard.
# α7* nAChRs [9] = molecular target: T1, α7* nAChRs; conditions: read-out: [^3H]MLA Binding Ki
# Description: as §1, §2, §3
# [^3H]DA Uptake = [^3H]DA uptake inhibition (Table 11); format: biochemical
# [10] = Table 8, single inhibitor concentration 10 or 250 μM, mean (standard error), read-out: Ki, affinity for the blood brain barrier choline transporter
# [11] = read-out: apparent Ki, inhibition of [^3H]-choline uptake into brain
# [12] = read-out: IC50, inhibition of nicotine-evoked [^3H]dopamine release/overflow
# [13] = rat striatal slices, nicotine 10 μM
# [14] = rat striatal membranes, 3 nM [^3H]-nicotine
# [15] = rat brain membranes, […] [^3H]-MLA
# [16] = 500 μM choline in perfusion fluid
# [17] = read-out: [^3H]Nicotine Binding Ki, Table 11
# [18] = read-out: Nicotine-evoked [^3H]DA Overflow IC50, Table 11
# [19] = read-out: [^3H]Nicotine Binding Ki, Table 7, mean (standard error)
# [20] = read-out: Nicotine-evoked [^3H]DA Overflow IC50, Table 7, mean (standard error)
# [21] = read-out: Nicotine-evoked [^3H]DA Overflow IC50, Table 10, mean (standard error)
molecule,measurement,setting,value
"CCCCCC[N+](C)(C)CCO [N-n-Hexylcholine, reference compound]",Ki,[1]; [10],2.2 µM
"CCCCCCCC[N+](C)(C)CCO [N-n-Octylcholine, reference compound]",Ki,[1]; [10],1.7 µM
CCCCCCCC[n+]1ccccc1 [N-n-Octylpyridinium iodide],Ki,[1]; [10],32 µM
CCCC[n+]1cccc(C2CCCN2C)c1 (centres unmarked) [NBNI],Ki,[1]; [11],777 ± 588 µM
CCCCCCCCCCCC[n+]1cccc(C)c1.[I-] [NDDPiI],concentration evoking [^3H]DA overflow (intrinsic activity),[2],≥ 1.0 µM
same,maximal inhibition (Imax) of nicotine-evoked [^3H]DA overflow,[3],63%
same,IC50,[3]; [12],0.03 µM
CCCCCCCCCC[n+]1cccc(C2CCCN2C)c1 (centres unmarked) [NDNI],Ki,[1]; [11],27 µM
same,IC50,[4]; [13],> 100 µM
same,Ki,α7* nAChRs [5],> 100 µM
same,Ki,[6]; [14],0.11 µM
same,Ki,"α4β2* nAChRs; [^3H]Nicotine Binding Ki, Table 4, mean (95% confidence interval)",0.09 µM
same,Ki,α4β2* nAChRs; affinity for [^3H]-nicotine binding sites,~0.09 µM
same,mode of interaction with the high affinity [^3H]-nicotine binding site (Scatchard analyses),α4β2* nAChRs,competitive manner
same,Ki,[7],> 100 µM
same,inhibitory activity at the nAChR subtype mediating nicotine-evoked dopamine release,[3],does not exhibit inhibitory activity
CN1CCCC1c1ccc[n+](C)c1 (centres unmarked) [NMNI],Ki,[1]; [11],> 1000 µM
CCCCCCCC[n+]1cccc([C@@H]2CCCN2C)c1.[I-] [NONI],Ki,[8]; [15],> 100 µM
same,Ki,"[1]; rat, in vivo, read-out: apparent Ki, inhibition of [^3H]-choline uptake into brain",49 µM
same,IC50,[4]; [13],0.62 µM
same,Ki,"α7* nAChRs [9]; Table 4, mean (95% confidence interval)",12 µM
same,mode of interaction with the high affinity [^3H]-nicotine binding site (Scatchard analyses),α4β2* nAChRs,competitive manner
same,decrease of PA for [^3H]-NONI,[16],~25%
same,permeability-surface area product (PA) for [^3H]-NONI,[16],1.24±0.5×10^−3 ml/s/g
same,uptake (PA) of [^3H]-NONI,5 mM choline in perfusion fluid,7.55±3.30×10^−4 ml/s/g
same,permeability-surface area product (PA) for [^3H]-NONI,"no inhibitors present, single time point",1.64±0.37×10^−3 ml/s/g
same,transfer coefficient value (Kin) for [^3H]-NONI uptake,"rat brain, 0-60 seconds, absence of unlabeled NONI",1.59±0.14×10^−3 ml/s/g
same,inhibition of [^3H]-NONI brain uptake by unlabeled NONI,"unlabeled NONI 250 μM in perfusion fluid, 45 seconds uptake",46%
same,mode of interaction with nAChRs mediating nicotine-evoked dopamine release (Schild analysis),[3],competitive manner
same,IC50,"[3]; read-out: Nicotine-evoked [^3H]DA Overflow IC50, Table 4, mean (95% confidence interval)",0.62 µM
"c1ccc2c[n+](CCCCCCCCCCCC[n+]3ccc4ccccc4c3)ccc2c1 [bIQDDB, N,N′-Dodecane-1,12-diyl-bis-isoquinolinium Dibromide]",Ki,[6]; [14],> 100 µM
same,Ki,[^3H]DA Uptake,0.27 ± 0.07 µM
same,Ki,α7* nAChRs [9]; Table 11,2.21 ± 0.25 µM
same,Ki,α4β2* nAChRs; [17],6.1 ± 0.73 µM
same,Ki,[7],12.3 µM
same,IC50,[3]; [18],0.007 ± 0.003 µM
"CN1CCC[C@H]1c1ccc[n+](CCCCCCCCCCCC[n+]2cccc([C@@H]3CCCN3C)c2)c1 [bNDDB, N,N′-Dodecane-1,12-diyl-bis-nicotinium Dibromide]",IC50,[4]; [13],4.37 µM
same,Ki,[6]; [14],1.43 µM
same,Ki,[^3H]DA Uptake,43.2 ± 14.9 µM
same,Ki,α4β2* nAChRs; [19],1.95 µM
same,Ki,α4β2* nAChRs; [17],1.95 ± 0.19 µM
same,IC50,[3]; [20],0.17 µM
same,IC50,[3]; [18],0.04 ± 0.02 µM
"[Br-].[Br-].c1cc[n+](CCCCCCCCCCCC[n+]2ccccc2)cc1 [bPDDB, N,N′-Dodecane-1,12-diyl-bis-pyridinium Dibromide]",binding affinity in the [^3H]MLA assay,[8],moderate binding affinity
same,IC50,[4]; [13],1 µM
same,Ki,[6]; [14],9.14 µM
same,Ki,[^3H]DA Uptake,> 100 µM
same,Ki,"α7* nAChRs [9]; Table 7, mean (standard error)",33 µM
same,Ki,α7* nAChRs [9]; Table 11,33 ± 4.6 µM
same,Ki,α4β2* nAChRs; [19],9.15 µM
same,Ki,α4β2* nAChRs; [17],9.15 ± 0.17 µM
same,Ki,[7],35.6 µM
same,IC50,[3]; [20],1 µM
same,IC50,[3]; [18],1 ± 0.38 µM
"c1ccc2c(c1)ccc[n+]2CCCCCCCCCCCC[n+]1cccc2ccccc21 [bQDDB, N,N′-Dodecane-1,12-diyl-bis-quinolinium Dibromide]",IC50,[4]; [13],0.02 µM
same,Ki,[^3H]DA Uptake,3.86 ± 0.22 µM
same,Ki,α7* nAChRs [9]; Table 11,1.61 ± 0.21 µM
same,Ki,[7],1.57 µM
same,IC50,[3]; [18],0.021 ± 0.01 µM
"N,N′-Dodecane-1,12-diyl-bis-picolinium Dibromide [bPiDDB]",Ki,[8]; [15],> 100 µM
same,IC50,[4]; [13],0.005 µM
same,Ki,[6]; [14],33 µM
same,Ki,[^3H]DA Uptake,> 100 µM
same,Ki,α7* nAChRs [9]; Table 11,> 100 µM
same,Ki,"α4β2* nAChRs; read-out: [^3H]Nicotine Binding Ki, Table 10, mean (standard error)",49 µM
same,Ki,α4β2* nAChRs; [17],48.6 ± 17.2 µM
same,affinity for nAChR subtype mediating nicotine-evoked [^3H]DA overflow compared to α4β2* and α7* nAChRs,[3],4-5 orders of magnitude
same,maximal inhibition (Imax) of nicotine-evoked [^3H]DA overflow,[3],60%
same,potency relative to DHβE in inhibiting nicotine-evoked [^3H]DA overflow,[3],approximately 320 fold
same,IC50,[3]; [12],0.005 µM
same,IC50,[3]; [21],0.005 µM
same,IC50,[3]; [18],0.005 ± 0.003 µM
"N,N′-Hexane-1,6-diyl-bis-picolinium; Diiodide [bPiHxI]",Ki,[8],> 100 µM
same,IC50,[4],1.66 µM
same,Ki,[6],> 100 µM
same,IC50,[3]; read-out: Nicotine-evoked [^3H]DA Overflow IC50,1.66 µM
"N,N′-Nonane-1,9-diyl-bis-picolinium Dibromide [bPiNB]",Ki,[8],> 100 µM
same,Ki,[6],66.7 µM
same,Ki,α4β2* nAChRs; read-out: [^3H]Nicotine Binding Ki,80 µM
"N,N′-Octane-1,8-diyl-bis-picolinium Diiodide [bPiOI]",Ki,[8]; [15],> 100 µM
same,IC50,[4]; [13],0.01 µM
same,Ki,[6]; [14],> 100 µM
same,IC50,[3]; [21],0.01 µM

# Reference: patent US20080287490A1, “Bis-pyridino containing compounds for the use in the treatment of CNS pathologies” (UNIVERSITY OF KENTUCKY RESEARCH FOUNDATION, priority 2005, published 2008)
